Calls of active or inactive are those of the source. The calls are words filed in the database; no cut-off is given here.
Tests used:
[1] = test system: Lu-99 cell line; test: Antiproliferative activity against human LU99 cells expressing KRAS G12C mutant assessed as cell growth inhibition cultured in soft agar medium containing compounds and supplemented with fresh medium for every 7 days by 3D soft agar proliferation assay; type: functional, cell-based
[2] = test system: Mus musculus; test: Decrease in DUSP6 mRNA level in tumor of athymic NU-Fox1nu mouse xenografted with human MIAPaca2 cells at 10 to 100 mg/kg, po qd measured at 3 to 24 hrs post-treatment by qRT-PCR analysis; type: functional, organism-based
[3] = biological target: GTPase KRas (Homo sapiens, UniProt P01116, G12C); test: Inhibition of GDP bound biotinylated human C-terminal Avi/His6-tagged KRAS G12C mutant (1 to 166 residues) expressed in Escherichia coli BL21 (DE3) assessed as reduction in SOS1-mediated GDP/GTP nucleotide exchange by preventing recognition between KRAS G12C mutant and Ras binding domain of N-terminal Avi/GST-tagged Raf-1 (51 to 149 residues) preincubated for 4 hrs followed by SOS1 and GTPgammaS addition by FRET assay
[4] = Distribution coefficient, log D of compound at pH 7.4; type: physicochemical; details: octanol/water, read-out: logD
[5] = Intrinsic clearance in rat hepatocytes assessed per 10^-6 cells; type: ADME, cell-based, Hepatocyte
[6] = Intrinsic clearance in human liver microsomes; type: ADME, Microsome; details: liver microsomes, read-out: CLH
[7] = Efflux ratio of apparent permeability in human Caco2 cells at 10 uM at pH 7.4; type: ADME, cell-based; details: Caco-2, pH 7.4
[8] = GSH reactivity in PBS buffer assessed as half life at pH 7.4 and 37 degree C in presence of glutathione; type: physicochemical; details: PBS buffer with glutathione
[9] = Clearance in Han Wistar rat at 2 umol/kg, po or 1 umol/kg, iv; details: in vivo
[10] = Volume of distribution at steady state in Han Wistar rat at 2 umol/kg, po or 1 umol/kg, iv; details: in vivo
[11] = test system: GTPase KRas (Homo sapiens), P01116 [G12C]; test: Binding affinity to KRAS G12C mutant in human […] cell lysate assessed as trypsin-mediated biotinylated cysteine residues digestion by measuring reduction in protein level at 4 uM prelabeled with iodoacetamide desthiobiotin followed by compound treatment measured after 4 hrs by MS analysis relative to control; type: subcellular
[12] = test system: Lu-99 cell line; test: Antiproliferative activity against human LU99 cells expressing KRAS G12C mutant assessed as cell growth inhibition measured after 5 days by sytox green dye staining based 2D proliferation assay; type: functional
[13] = test system: SW1573; test: Antiproliferative activity against human SW1573 cells expressing KRAS G12C mutant assessed as cell growth inhibition cultured in soft agar medium containing compounds and supplemented with fresh medium for every 7 days by 3D soft agar proliferation assay; type: functional, cell-based
[14] = test system: SW1573; test: Antiproliferative activity against human SW1573 cells harboring KRAS G12C mutant assessed as cell growth inhibition measured after 5 days by sytox green dye staining based 2D proliferation assay; type: functional
[15] = test system: GTPase KRas (Homo sapiens), P01116 [G12C]; test: Inhibition of KRAS G12C mutant in human H358 cells assessed as […] at 1 uM measured after 6 hrs by TQ-UPLC/MS analysis relative to control; type: cell-based
[16] = test system: GTPase KRas (Homo sapiens), P01116 [G12C]; test: Inhibition of KRAS G12C mutant expressed in human HCC44 cells assessed as […] at 1 uM measured after 6 hrs by TQ-UPLC/MS analysis relative to control; type: cell-based
[17] = test system: GTPase KRas (Homo sapiens), P01116 [G12C]; test: Inhibition of KRAS G12C mutant expressed in human H1792 cells assessed as […] at 1 uM measured after 6 hrs by TQ-UPLC/MS analysis relative to control; type: cell-based
[18] = test system: GTPase KRas (Homo sapiens), P01116 [G12C]; test: Inhibition of KRAS G12C mutant expressed in human H23 cells assessed as […] at 1 uM measured after 6 hrs by TQ-UPLC/MS analysis relative to control; type: cell-based
[19] = test system: GTPase KRas (Homo sapiens), P01116 [G12C]; test: Inhibition of KRAS G12C mutant expressed in human Calu1 cells assessed as […] at 1 uM measured after 6 hrs by TQ-UPLC/MS analysis relative to control; type: cell-based
[20] = test system: GTPase KRas (Homo sapiens), P01116 [G12C]; test: Inhibition of KRAS G12C mutant expressed in human HOP62 cells assessed as […] at 1 uM measured after 6 hrs by TQ-UPLC/MS analysis relative to control; type: cell-based
[21] = test system: GTPase KRas (Homo sapiens), P01116 [G12C]; test: Inhibition of KRAS G12C mutant expressed in human LU65 cells assessed as […] at 1 uM measured after 6 hrs by TQ-UPLC/MS analysis relative to control; type: cell-based
[22] = test system: GTPase KRas (Homo sapiens), P01116 [G12C]; test: Inhibition of KRAS G12C mutant expressed in human H2122 cells assessed as […] at 1 uM measured after 6 hrs by TQ-UPLC/MS analysis relative to control; type: cell-based
[23] = test system: GTPase KRas (Homo sapiens), P01116 [G12C]; test: Inhibition of KRAS G12C mutant expressed in human H1373 cells assessed as […] at 1 uM measured after 6 hrs by TQ-UPLC/MS analysis relative to control; type: cell-based
[24] = test system: GTPase KRas (Homo sapiens), P01116 [G12C]; test: Inhibition of KRAS G12C mutant expressed in human LU99 cells assessed as […] at 1 uM measured after 6 hrs by TQ-UPLC/MS analysis relative to control; type: cell-based
[25] = test system: GTPase KRas (Homo sapiens), P01116 [G12C]; test: Inhibition of KRAS G12C mutant expressed in human SW1573 cells assessed as […] at 1 uM measured after 6 hrs by TQ-UPLC/MS analysis relative to control; type: cell-based
[26] = biological target: GTPase KRas (Homo sapiens) (UniProt P01116); test: Inhibition of wild type KRAS expressed in human PC9 cells assessed as […] at 1 uM measured after 6 hrs by TQ-UPLC/MS analysis; type: cell-based
[27] = test system: GTPase KRas (Homo sapiens), P01116 [UNDEFINED MUTATION]; test: Inhibition of KRas mutant expressed in human A549 cells assessed as […] at 1 uM measured after 6 hrs by TQ-UPLC/MS analysis; type: cell-based
[28] = test system: GTPase KRas (Homo sapiens), P01116 [UNDEFINED MUTATION]; test: Inhibition of KRas mutant expressed in human H2291 cells assessed as […] at 1 uM measured after 6 hrs by TQ-UPLC/MS analysis; type: cell-based
[29] = test system: MIA PaCa-2; test: Antitumor activity against human MIAPaCa2 cells harboring KRAS G12C mutant xenografted in orally dosed athymic NU-Fox1nu nude mouse assessed as tumor regression administered daily for 2 weeks and further treated for 3 weeks; type: functional, organism-based
[30] = in vivo; details: Han Wistar, rat, po, 2 umol/kg

C=CC(=O)N1C[C@@H]2C(=O)N(C)c3cnc4c(F)c(-c5c(O)cccc5F)c(Cl)cc4c3N2C[C@H]1C
growth inhibition (GI) [1]: inactive
inhibition [2]: Active
IC50 [3]: < 5 nM
logD [4]: 3.4
hepatocyte intrinsic clearance [5]: 11 µL/min
microsomal CLint [6]: 21 µL/min/mg
efflux ratio at 10 µM [7]: 1.1
half-life [8]: 5.57 h
clearance [9]: 4 mL/min/kg
Vd [10]: 1 L/kg
fold change (FC) [11]: > 2
growth inhibition (GI) [12]: inactive
growth inhibition (GI) [13]: inactive
growth inhibition (GI) [14]: inactive
inhibition [15]: 82%
inhibition [16]: 79%
inhibition [17]: 75%
inhibition [18]: 80%
inhibition [19]: 73%
inhibition [20]: 89%
inhibition [21]: 84%
inhibition [22]: 74%
inhibition [23]: 86%
inhibition [24]: 100%
inhibition [25]: 70%
inhibition [26]: inactive
inhibition [27]: inactive
inhibition [28]: inactive
Activity [29]: Dose-dependent effect
bioavailability [30]: 94%

From ChEMBL document CHEMBL4402559, “Structure-Based Design and Pharmacokinetic Optimization of Covalent Allosteric Inhibitors of the Mutant GTPase KRASG12C” (J Med Chem, 2020)
